# Test results from patent US7989435B2, “Phytic citrate compounds and process for preparing the same” (IP-6 Research, Inc., priority 2005, dated 2011).
# “And” between values parts separate entries of the source, which are not always exact repeats. Equal entries are not always repeated. Where two headings read alike, the source gives them in different places.
# Key:
# [1] = Biodegradability, 301 A DOC Die-Away Test (OECD Guidelines)
# Description: The biodegradability of phytic citrate was evaluated according to the method of “301 A DOC Die-Away Test” (1993), OECDGuidelines for Testing of Chemicals.
# [2] = Comparison of chelating effects, divalent cation electrode and ion analyzer; type: binding; set-up: unit not given here
# Description: The chelating effects of the various chelators were measured by the conventional method known to an artisan in the art. The concentration of the ions chelated by the chelator was determined using a divalent cation electrode (e.g., Model 93-32, made by Orion Research Incorporated) and an ion analyzer (e.g., Model EA 920, made by Orion Research Incorporated).
# [3] = at 66 grams/liter; cited from earlier work
# [4] = Re-dissolution rate of Fe^2+, FIG. 2; conditions: in brain tissues, compared with phytic acid and EDTA
# [5] = 7 days, test suspension / reference flask
# [6] = 14 days, test suspension / reference flask
molecule,measurement,setting,value
"Nc1ccccc1 [Aniline Reference, Aniline, reference compound]",Degradation (%) in days,[1]; [5],>90 (100) %
same,Degradation (%) in days,[1]; [6],>90 (99.7) %
O=C(O)CC(O)(CC(=O)O)C(=O)O [Citric acid],Ca^2+ (conc. of ions chelated),[2],3.50
"O=C(O)CN(CCN(CC(=O)O)CC(=O)O)CC(=O)O [EDTA, ethylenediaminetetraacetic acid]",Ca^2+ (conc. of ions chelated),[2],10.70
O=C(O)[C@H](O)[C@@H](O)[C@H](O)[C@H](O)CO [Gluconic acid],Ca^2+ (conc. of ions chelated),[2],1.20
CC(O)C(=O)O (stereo not drawn) [Lactic acid],Ca^2+ (conc. of ions chelated),[2],1.07
O=P(O)(O)O[C@H]1[C@H](OP(=O)(O)O)[C@@H](OP(=O)(O)O)[C@H](OP(=O)(O)O)[C@@H](OP(=O)(O)O)[C@H]1OP(=O)(O)O [Phytic acid],pH of aqueous solution,[3],0.9
same,Ca^2+ (conc. of ions chelated),[2]; pH 3,9.73
same,Ca^2+ (conc. of ions chelated),[2]; pH 5,10.55
same,Ca^2+ (conc. of ions chelated),[2]; pH 7,10.57
Polyphosphoric acid,Ca^2+ (conc. of ions chelated),[2],3.0
phytic hexa-citrate [Phytic citrate],Degradation (%) in days,"[1]; 7 days, abiotic sterile control",<10%
same,Degradation (%) in days,"[1]; 7 days, absorption control",<10%
same,Degradation (%) in days,[1]; [5],>90 (98.0) % and >90 (97.6) % and >90 (99.4) %
same,Degradation (%) in days,[1]; 14 days (mean of test suspension flasks 1-3),>90 (99.5) %
same,Degradation (%) in days,"[1]; 14 days, abiotic sterile control",<10%
same,Degradation (%) in days,"[1]; 14 days, absorption control",<10%
same,Degradation (%) in days,[1]; [6],>90 (98.6) % and >90 (100) %
same,Biodegradability (conclusion in words),[1]; results of Table 3,readily biodegradable
same,Ca^2+ (conc. of ions chelated),[2],12.24
same,Re-dissolution rate of Fe^2+,[4],superior redissolution capability to phytic acid and EDTA
